Laboratory results reported in patent US5298619A, “1,4-dihydropyridine compounds with PAF-antagonistic activity” (Alter, S.A., priority 1991, dated 1994).

Key:
PAF = conditions: cited from earlier work; for PAF antagonistic properties: background statement
[1] = system: aggregation induced by 1-PAF in rabbit platelets; assay: Effect on the aggregation induced by 1-PAF in rabbit platelets (washed platelets); type: cell-based, rabbit (male, albino, New Zealand); conditions: Oryctolagus cuniculus, Platelet, 37° C., 5 min preincubation, 1-PAF=1.92 nM, compounds 10 to 0.1 micM, mean of three experiments in duplicate
Experimental: STUDIES WITH WASHED PLATELETS: Aggregation
The suspensions of washed platelets were obtained from rabbit's blood (male, albino, New Zealand), anticoagulated with a solution of citric acid citrate/sodium dextrose in the ratio 1:6 (v:v).
The platelet rich plasma (PRP) was obtained by centrifuging blood samples at 100×g for 10 minutes and the platelets by centrifuging the PRP at 1,800×g for 15 minutes at 4° C. The pellet obtained in this way was washed twice with Tyrode tampon containing citric acid, PGE and aspirase, pH 6.5. The platelets so-washed were finally resuspended in Hepes-Tyrode tampon, pH 7.35 supplemented with bovine seric albumin at 0.35%; Ca++ 2 mM.
The final platelet concentration was adjusted to 300,000 platelets/mic-1. The aggregation was measured turbidimetrically using a lumiaggregometre (Chrono-Log.Co; Haventon, Pa., USA) at 37° C. under stirring at 1,100 r.p.m. The study was made in aliquots of preincubated PRP, with the compounds under study, for 5 minutes. The concentration of the antagonists was, in all cases, between 10 micM and 0.1 micM. The aggregation was induced by adding L-PAF diluted in 5 micl of Hepes/albumin tampon, the final concentration being 1.9×0,000000001. The IC50 for each compound was evaluated graphically from the dose-response curves.
The data reflected is the mean of three experiments performed in duplicate. Concentration of 1-PAF=1.92 nM.
The concentrations of compounds, in all cases, were between 10 and 0.1 micM .

bronchoconstriction = conditions: doses times lower than histamine; cited from earlier work

SMILES | IC50 [1] [µM] | other results
COc1ccc([C@@H]2Sc3ccccc3N(CCN(C)C)C(=O)[C@@H]2OC(C)=O)cc1 [Diltiazem] |  | PAF antagonistic properties (PAF): present PAF antagonistic properties
COC(=O)C1=C(C)NC(C)=C(C(=O)OCCCSc2ccc(Cl)cc2)C1C (centres unmarked) [Example 1, 3-(4-chlorophenylthio) propyl 5-methoxycarbonyl-2,4,6-trimethyl-1,4-dihydropyridine-3-carboxylate] | 0.34 | 
COC(=O)C1=C(C)NC(C)=C(C(=O)OCCS(=O)(=O)c2ccc(C)cc2)C1C (centres unmarked) [Example 2, 2-(4-methylphenylsulphonyl) ethyl 5-methoxycarbonyl-2,4,6-trimethyl-1,4-dihydropyridine-3-carboxylate] | 1.1 | 
COC(=O)C1=C(C)NC(C)=C(C(=O)OCCCOc2ccc(-c3ccccc3)cc2)C1C (centres unmarked) [Example 3, 3-(4-phenylphenoxy) propyl 5-methoxycarbonyl-2,4,6-trimethyl-1,4-dihydropyridine-3-carboxylate] | 0.24 | 
COC(=O)C1=C(C)NC(C)=C(C(=O)OCCCSc2ccc(C)cc2)C1C (centres unmarked) [Example 4, 3-(4-methylphenylthio) propyl 5-methoxycarbonyl-2,4,6-trimethyl-1,4-dihydropyridine-3-carboxylate] | 0.85 | 
COC(=O)C1=C(C)NC(C)=C(C(=O)OCCS(=O)(=O)c2ccccc2)C1C (centres unmarked) [Example 5, 2-(phenylsulphonyl) ethyl 5-methoxycarbonyl-2,4,6-trimethyl-1,4-dihydropyridine-3-carboxylate] | 1.3 | 
COC(=O)C1=C(C)NC(C)=C(C(=O)OCCCOc2ccccc2)C1C (centres unmarked) [Example 6] | 3 | 
COC(=O)C1=C(C)NC(C)=C(C(=O)OCCCS(=O)(=O)c2ccccc2)C1C (centres unmarked) [Example 13] | 2.3 | 
COC(=O)C1=C(C)NC(C)=C(C(=O)OCCCSc2ccc(NC(C)=O)cc2)C1C (centres unmarked) [Example 30] | 3.1 | 
COC(=O)C1=C(C)NC(C)=C(C(=O)OCCCOc2ccc(Cl)c(Cl)c2)C1C (centres unmarked) [Example 41] | 2.7 | 
COC(=O)C1=C(C)NC(C)=C(C(=O)OCCCSc2ccc(Cl)c(Cl)c2)C1C (centres unmarked) [Example 45] | 0.15 | 
CCOC(=O)C1=C(C)NC(C)=C(C(=O)OCCCSc2ccc(Cl)c(Cl)c2)C1C (centres unmarked) [Example 46] | 1.4 | 
COC(=O)C1=C(C)NC(C)=C(C(=O)OCCCOc2ccc(C)cc2)C1C (centres unmarked) [Example 48] | 4 | 
COC(=O)C1=C(C)NC(C)=C(C(=O)OCCCS(=O)(=O)c2ccc(C)cc2)C1C (centres unmarked) [Example 52] | 2.7 | 
COC(=O)C1=C(C)NC(C)=C(C(=O)OCCCOc2ccc(OC)cc2)C1C (centres unmarked) [Example 61] | 2 | 
COC(=O)C1=C(C)NC(C)=C(C(=O)OCCOc2ccc(OC)cc2)C1C (centres unmarked) [Example 62] | 10 | 
COC(=O)C1=C(C)NC(C)=C(C(=O)OCCOc2ccc(-c3ccccc3)cc2)C1C (centres unmarked) [Example 64] | 2.8 | 
CCOC(=O)C1=C(C)NC(C)=C(C(=O)OCCCOc2ccc(-c3ccccc3)cc2)C1C (centres unmarked) [Example 66] | 2.4 | 
CCOC(=O)C1=C(C)NC(C)=C(C(=O)OCCS(=O)(=O)c2ccccc2)C1C (centres unmarked) [Example 74] | 2.8 | 
COC(=O)C1=C(C)NC(C)=C(C(=O)OCCCSc2ccc([N+](=O)[O-])cc2)C1C (centres unmarked) [Example 76] | 2.8 | 

SMILES | IC50 [1] [µM] | other results
CCOC(=O)C1=C(C)NC(C)=C(C(=O)OCCCSc2ccc(Cl)cc2)C1C (centres unmarked) [Example 82] | 2.8 | 
COC(=O)C1=C(C)NC(C)=C(C(=O)OCCOc2ccc([N+](=O)[O-])cc2)C1C (centres unmarked) [Example 110] | 4.3 | 
COC(=O)C1=C(C)NC(C)=C(C(=O)OCCOc2cccc3ccccc23)C1C (centres unmarked) [Example 113] | 3 | 
COC(=O)C1=C(C)NC(C)=C(C(=O)OCCOc2ccc(Cl)cc2)C1C (centres unmarked) [Example 131] | 10 | 
CCOC(=O)C1=C(C)NC(C)=C(C(=O)OCCCOc2cccc(N(C)C)c2)C1C (centres unmarked) [Example 133] | 2.4 | 
COC(=O)C1=C(C)NC(C)=C(C(=O)OCCOc2cccc(N(C)C)c2)C1C (centres unmarked) [Example 135] | 2.8 | 
COC(=O)C1=C(C)NC(C)=C(C(=O)OCCCOc2ccc(Oc3ccccc3)cc2)C1C (centres unmarked) [Example 139] | 0.7 | 
COC(=O)C1=C(C)NC(C)=C(C(=O)OCCOc2ccc(Oc3ccccc3)cc2)C1C (centres unmarked) [Example 140] | 2 | 
CCOC(=O)C1=C(C)NC(C)=C(C(=O)OCCCOc2ccc3ccccc3c2)C1C (centres unmarked) [Example 152, 3-(2-naphthyloxy) propyl 5-ethoxycarbonyl-2,4,6-trimethyl-1,4-dihydropyridine-3-carboxylate] | 3 | 
COC(=O)C1=C(C)NC(C)=C(C(=O)OCCCOc2cccc3ccccc23)C1C (centres unmarked) [Example 154] | 1.1 | 
COC(=O)C1=C(C)NC(C)=C(C(=O)OCCCSc2ccccc2)C1C (centres unmarked) [Example 163, 3-(phenylthio) propyl 5-methoxycarbonyl-2,4,6-trimethyl-1,4-dihydropyridine-3-carboxylate] | 0.41 | 
CCC1C(C(=O)OC)=C(C)NC(C)=C1C(=O)OCCCSc1ccc(Cl)cc1 (centres unmarked) [Example 164, 3-(4-chlorophenylthio) propyl 2,6-dimethyl-4-ethyl-5-methoxycarbonyl-1,4-dihydropyridine-3-carboxylate] | 0.32 | 
CCOC(=O)C1=C(C)NC(C)=C(C(=O)OCCCSc2ccc(Cl)cc2)C1CC (centres unmarked) [Example 165, 3-(4-chlorophenylthio) propyl 2,6-dimethyl-4-ethyl-5-ethoxycarbonyl-1,4-dihydropyridine-3-carboxylate] | 2.5 | 
CCOC(=O)C1=C(C)NC(C)=C(C(=O)OCCCSc2ccccc2)C1C (centres unmarked) [Example 166] | 2.6 | 
COC(=O)C1=C(C)NC(C)=C(C(=O)OCCCSc2ccc3ccccc3c2)C1C (centres unmarked) [Example 167] | 0.4 | 
CCC1C(C(=O)OC)=C(C)NC(C)=C1C(=O)OCCCSc1ccc(C)cc1 (centres unmarked) [Example 172] | 0.19 | 
COc1ccc(CCN(C)CCCC(C#N)(c2cc(OC)c(OC)c(OC)c2)C(C)C)cc1OC (centres unmarked) [Gallopamil] |  | PAF antagonistic properties (PAF): present PAF antagonistic properties
COC(=O)C1=C(C)NC(C)=C(C(=O)OC)C1c1ccccc1[N+](=O)[O-] [Nifedipina] |  | PAF antagonistic properties (PAF): only show a very weak activity; concentrations needed to obtain an effect, relative to those inhibiting calcium flow in other cells (PAF; fold higher than those inhibiting calcium flow in other cells): 1,000,000; concentrations needed to obtain an effect, relative to the specific antagonists of the PAF-"acether" (PAF; times greater than the specific antagonists of the PAF-"acether"): ≥ 1,000 times
CCCCCCCCCCCCCCCCOCC(COP(=O)([O-])OCC[N+](C)(C)C)OC(C)=O (centres unmarked) [PAF-"acether", 1-O-hexadecyl/octodecyl-2-acetyl-sn-glycero-3-phosphocoline] |  | doses inducing bronchoconstriction, relative to histamine (bronchoconstriction): 100 times lower
